The values that follow come from article PMC4388511 (PLoS ONE, 2015).

Molecules are shown by their SMILES. Where two headings read alike, the source gives them in different places.

Assay [1] has as its target T1, serotonin 5-HT2C receptor (Homo sapiens, UniProt P28335).
T1 construct: gene HTR2C; c-myc-5-HT2C-Cerulean
The experiment in a line: facilitation of morphine-induced MOP-YFP endocytosis in HEK293 cells co-expressing 5-HT2C, at […]. The format is cell-based.

The target in assay [2] is T1, serotonin 5-HT2C receptor. The assay is described as above. The format is cell-based. This is another data set of the same source.

T1 sequence (P28335 33-458): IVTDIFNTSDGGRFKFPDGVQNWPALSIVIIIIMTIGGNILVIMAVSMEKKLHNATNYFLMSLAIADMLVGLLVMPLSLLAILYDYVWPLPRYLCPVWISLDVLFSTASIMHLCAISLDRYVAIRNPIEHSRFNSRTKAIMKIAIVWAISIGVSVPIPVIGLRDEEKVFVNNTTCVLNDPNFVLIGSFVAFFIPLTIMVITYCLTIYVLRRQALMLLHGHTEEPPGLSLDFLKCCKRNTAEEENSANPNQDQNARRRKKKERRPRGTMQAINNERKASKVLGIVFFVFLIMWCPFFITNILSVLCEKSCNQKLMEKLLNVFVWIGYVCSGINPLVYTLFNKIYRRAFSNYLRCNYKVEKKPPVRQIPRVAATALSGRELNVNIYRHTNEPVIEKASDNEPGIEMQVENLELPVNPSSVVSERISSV
T1 sequence (P35372 whole entry partner): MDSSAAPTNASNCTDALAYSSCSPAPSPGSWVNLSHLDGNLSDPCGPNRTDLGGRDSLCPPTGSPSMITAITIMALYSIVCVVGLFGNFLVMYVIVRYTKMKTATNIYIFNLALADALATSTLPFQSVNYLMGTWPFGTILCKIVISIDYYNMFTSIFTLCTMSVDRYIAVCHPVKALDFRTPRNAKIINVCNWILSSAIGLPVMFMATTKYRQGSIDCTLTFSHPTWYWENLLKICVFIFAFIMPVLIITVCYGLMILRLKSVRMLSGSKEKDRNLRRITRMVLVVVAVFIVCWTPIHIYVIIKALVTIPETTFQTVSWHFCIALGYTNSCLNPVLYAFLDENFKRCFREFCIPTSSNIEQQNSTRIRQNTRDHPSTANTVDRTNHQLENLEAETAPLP

Consider `COc1cc(CC(C)N)c(OC)cc1I` (racemic) [DOI], for which, in assay [1], the “Emax (no. vesicles/cell)” value was 8.18 ± 1.31 vesicles/cell (Emax, with morphine).
Turning to `O=C1Nc2cc(Cl)c(Cl)cc2N2CCNCC12` (centres unmarked) [WAY161503], in assay [2], the “Emax (no. vesicles/cell)” value is given as 9.08 ± 1.88 vesicles/cell (Emax, with morphine).
